# Experimental data taken from patent US20170042878A1 (THE GENERAL HOSPITAL CORPORATION, priority 2012, published 2017).
# “Also recorded” adds a separate entry of the source. Like-named read-outs stand apart in the source and are kept apart here.
# Key:
# [1] = tested on: rabbit; conditions: drugs injected immediately after completion of daily training sessions; cited from earlier work
# [2] = ketamine injection 1 mg/kg; cited from earlier work
# [3] = tested on: rats; conditions: cited from earlier work
# [4] = tested on: C57BL/6N mice; test: Two-day forced swim test (FST) in mice; assay type: in vivo, mouse
# Procedure: (§1) Male 10 week C57BL/6N mice (Taconic) acclimated to a holding facility one week prior to testing. A two-day FST paradigm was employed, in which mice were exposed to a 10 minute test in absence of drug, and tested the following day in presence of drug in a 6 minute test. […] All animals were drug naïve and not previously exposed to behavioral testing.
# Male C57BL6N/Tac mice were purchased from Taconic Farms (Germantown, N.Y.) at 10 weeks of age. Mice were housed four mice per cage upon arrival under a 12:12 h light/dark cycle and were allowed to acclimate for approximately one week prior to behavioral procedures. Food and water were provided ad libitum. All procedures followed the National Institutes of Health Guide for the Care and Use of Laboratory Animals, and were approved by the Massachusetts Institute of Technology Animal Care and Use Committee.
# Mice were tested in a two day forced swim test (FST) procedure. On day 1, all mice received mock intraperitoneal vehicle (i.p.) injections to acclimate to the injection procedure and, 30 minutes later, were placed into one of five identical cylindrical chambers (24 cm×15 cm) filled approximately halfway with warm water (26)±2° for 10 minutes with no data collected. On day 2, mice received i.p. injections 30 minutes prior to being placed in a cylinder for a 6 minute session and immobility time was scored automatically (EthoVisionXT; Noldus Information Technology; Wageningen, Netherlands) during the final 4 minutes.
# For all FST behavioral experiments, the time spent immobile was the dependent variable, and data were analyzed by one-way analysis of variance (ANOVA) and Tukey post-hoc comparisons using SPSS v. 18 (IBM).
# [5] = tested on: depressed patients; conditions: cited from earlier work
# [6] = in vivo; cited from earlier work
# [7] = tested on: mice; conditions: cited from earlier work
# [8] = tested on: BDNF; conditions: ketamine sub-anesthetic doses; correlated with antidepressant effect; cited from earlier work
# [9] = tested on: mTOR pathway; conditions: ketamine 5 and 10 mg/kg i.p., cited from earlier work
# [10] = tested on: rats; conditions: rat, in vivo; cited from earlier work
# [11] = tested on: C57BL/6N mice; test: Home cage observation of motor activation after administration, prior to FST; conditions: scopolamine 0.5 and 1.0 mg/kg i.p.
# Procedure: as §1
# A dose at the low end of this range was selected (3 mg/kg i.p.) and administered to adult male C57BL/6N mice 30 min prior to the FST.
# [12] = tested on: mice; conditions: scopolamine single administration 0.1 or 0.2 mg/kg i.p.; P<0.01 or P<0.001; cited from earlier work
# [13] = tested on: mTOR signaling; conditions: cited from earlier work
# [14] = tested on: NMDA receptor 1A; conditions: rat, in vivo; cited from earlier work
# [15] = tested on: NMDA receptor 2A; conditions: rat, in vivo; cited from earlier work
structure (smiles),measurement,setting,value
CNC1(c2ccccc2Cl)CCCCC1=O (stereo not shown) [ketamine],effect on conditioning of the nictitating membrane response,[1],accelerates
same,cerebral vasodilatation,[2],significant cerebral vasodilatation
same,forced swim test immobility time versus vehicle,"[3]; ketamine 10 or 15 mg/kg i.p. (Garcia et al., 2008)",reduced forced swim test immobility time
same,forced swim test effect,"[3]; ketamine anesthetic dose 80 mg/kg i.p., immediately after treatment (Li et al., 2010)",no effect
same,forced swim test immobility time versus vehicle,"[3]; ketamine anesthetic dose 160 mg/kg i.p., tested 3, 7, or 10 days after treatment (Yilmaz et al., 2002)",significantly decreased
same,reduction in immobility versus vehicle,"[4]; ketamine 3 mg/kg i.p. 30 min prior to FST, modest and non-significant, FIG. 1",18%
same,effect on FST immobility time versus vehicle,"[4]; ketamine 3 mg/kg i.p. 30 minutes prior to testing, p>0.05, FIG. 1",modest non-significant antidepressant effect; also recorded: did not significantly reduce immobility time
same,persistence of improvement in depression ratings,"[5]; ketamine single intravenous infusion 0.5 mg/kg (Zarate et al., 2006)",approximately 1 week
same,time to significant improvement in depression ratings after administration,[5]; ketamine single intravenous infusion 0.5 mg/kg,1 to 2 h
same,recognition memory aspect of task performance,[6],dose-dependent impairment
same,antidepressant effect in the FST,"[7]; ketamine 3 mg/kg i.p., within 30 minutes, mouse models of depression (Autry et al., 2011)",exhibited an antidepressant effect
same,levels of BDNF in the hippocampus,[8],increased levels of BDNF
same,mature dendritic spines of medial PFC pyramidal neurons and serotonin-mediated cortical neurotransmission,[9]; at 24 hours,concomitant increases
same,levels of pre- and postsynaptic proteins,[9]; two hours after treatment,increased levels
same,phosphorylation and activation of mTOR pathway molecules in synaptoneurosomes from prefrontal cortex,[9]; within one hour of treatment,increase phosphorylation and activate several molecules in the mTOR pathway
CN1[C@@H]2C[C@@H](OC(=O)[C@H](CO)c3ccccc3)C[C@H]1[C@@H]1O[C@@H]12 [scopolamine],adult neurogenesis,[10],suppress adult neurogenesis
same,effect on conditioning of the nictitating membrane response,[1],retards
same,effect on ketamine-induced cerebral vasodilatation,[2],blocked
same,motor activation in the home cage after administration,[11],noticeably hyperactive; also recorded: visibly hyperactive
same,effect on antidepressant effects of desipramine and nomifensine in the forced swim test,"[3]; scopolamine 0.5-1.0 mg/kg i.p., desipramine 20 or 30 mg/kg i.p., nomifensine 2.5 or 5 mg/kg i.p. (Mancinelli et al., 1988)",potentiated the antidepressant effects
same,effect on FST immobility time versus vehicle,"[4]; scopolamine 0.1 mg/kg i.p., p>0.05, FIG. 2",no change in immobility time versus vehicle; also recorded: did not significantly reduce immobility time
same,effect on FST immobility time versus vehicle,"[4]; scopolamine 0.5 mg/kg and 1.0 mg/kg i.p., p<0.05, likely due to non-specific motor activation, FIG. 2",substantially reduced immobility time
same,immobility times in the tail suspension test versus vehicle,[12],decreased immobility times
same,mTOR signaling,[13],rapidly activate mTOR signaling
same,expression of NMDA receptor 1A,[14],decrease expression
same,time after which patients report improvement,"[5]; scopolamine 0.004 mg/kg infusion (Furey and Drevets, 2006)",approximately 24 hours
same,clinical outcome in depressed patients,"[5]; scopolamine 0.004 mg/kg infusion, assessed 3 days after treatment",clinical improvement
same,incremental acquisition aspect of task performance,[6],dose x difficulty related impairment
same,recognition memory aspect of task performance,[6],dose x difficulty related impairment
same,immobility times in the forced swim test versus vehicle,"[7]; scopolamine single administration 0.1 or 0.2 mg/kg i.p., both P<0.001",decreased immobility times
same,expression of NMDA receptor 2A,[15],decrease expression
